According to patent publication US3983105A, “Penicillins” (Bayer Aktiengesellschaft, priority 1971, dated 1976):
Values joined by “and” are separate entries in the source; they are usually repeats but may differ in a detail not shown here. Equal entries are not always repeated.

Columns and labels:
Assay type in all cases: cell-based
Pseudomonas aeruginosa = test: MIC, test tube serial dilution, Pseudomonas aeruginosa
Escherichia coli = test: MIC, test tube serial dilution, Escherichia coli
Streptococcus faecalis = test: MIC, test tube serial dilution, Streptococcus faecalis
Staphylococcus aureus = test: MIC, test tube serial dilution, Staphylococcus aureus
Proteus morganii = test: MIC, test tube serial dilution, Proteus morganii; settings: unit assumed
Proteus vulgaris = test: MIC, test tube serial dilution, Proteus vulgaris
Klebsiella-Aerobacter = test: MIC, test tube serial dilution, Klebsiella-Aerobacter
[1] = strain 1756 (BRL 1 756), 24 hours, 37°C

Compound	MIC (Pseudomonas aeruginosa; in µg/mL (unit assumed))	MIC (Escherichia coli; strain 183/58, 24 hours, 37°C)	MIC (Streptococcus faecalis; unit assumed)	MIC (Staphylococcus aureus; [1])	MIC (Proteus morganii)	MIC (Klebsiella-Aerobacter; in µg/mL (unit assumed))	MIC (Escherichia coli; strain A 261, 24 hours, 37°C)	MIC (Klebsiella-Aerobacter; strain 63, 24 hours, 37°C)	also measured
CCCC(=O)N1CCN(C(=O)N[C@@H](C(=O)N[C@@H]2C(=O)N3[C@@H]2SC(C)(C)[C@@H]3C(=O)O)c2ccccc2)C1=O [Example 14, Sodium D(-)-α-[(3-n-butyryl-imidazolidin-2-on-1-yl)-carbonylamino]-benzylpenicillin]	32	< 1 U/ml	32 µg/mL	128 U/ml	–	–	–	–	–
CC1(C)S[C@@H]2[C@H](NC(=O)[C@H](NC(=O)N3CCN=C3NS(C)(=O)=O)c3ccccc3)C(=O)N2[C@H]1C(=O)O [Example 19, Sodium D(-)-α-[(2-methylsulphonylamino-imidazolin(2)-1-yl)-carbonylamino]-benzylpenicillin]	–	16 U/ml	–	–	32 µg/mL	–	–	–	MIC (Proteus vulgaris; strain 1017, 24 hours, 37°C): 16 U/ml; MIC (Proteus vulgaris; unit assumed): 16 µg/mL
CC(C)(C)C(=O)N1CCN(C(=O)N[C@@H](C(=O)N[C@@H]2C(=O)N3[C@@H]2SC(C)(C)[C@@H]3C(=O)O)c2ccccc2)C1=O [Example 21, Sodium D(-)-α-[(3-pivaloyl-imidazolidin-2-on-1-yl)-carbonylamino]-benzylpenicillin]	32	< 1 U/ml	–	256 U/ml	–	8	256 U/ml	–	MIC (Streptococcus faecalis; ATCC 9790, 24 hours, 37°C): 64 U/ml
CC1(C)S[C@@H]2[C@H](NC(=O)[C@H](NC(=O)N3CCN(C(=O)OC4CCCCC4)C3=O)c3ccccc3)C(=O)N2[C@H]1C(=O)O [Example 23, Sodium D(-)-α-[(3-cyclohexyloxycarbonyl-imidazolidin-2-on-1-yl)-carbonylamino]-benzylpenicillin]	32	< 1 U/ml	32 µg/mL	64 U/ml	–	8	–	–	MIC (Pseudomonas aeruginosa; strain Bonn, 24 hours, 37°C): 16 U/ml
Cc1ccc(S(=O)(=O)NC2=NCCN2C(=O)N[C@@H](C(=O)N[C@@H]2C(=O)N3[C@@H]2SC(C)(C)[C@@H]3C(=O)O)c2ccccc2)cc1 [Example 25, Sodium D(-)-α-[(2-tosylamino-imidazolin(2)-1-yl)-carbonylamino]-benzylpenicillin]	32	32 U/ml	–	64 U/ml	–	–	> 256 U/ml	64 U/ml	MIC (Pseudomonas aeruginosa; strain Bonn, 24 hours, 37°C): 64 U/ml; MIC (Klebsiella-Aerobacter; strain K 10, 24 hours, 37°C): 64 U/ml; MIC (Escherichia coli; strain C 165, 24 hours, 37°C): 16 U/ml; MIC (Proteus vulgaris; strain 1017, 24 hours, 37°C): 16 U/ml; MIC (Streptococcus faecalis; ATCC 9790, 24 hours, 37°C): 16 U/ml
CCC(=O)N1CCN(C(=O)N[C@@H](C(=O)N[C@@H]2C(=O)N3[C@@H]2SC(C)(C)[C@@H]3C(=O)O)c2ccccc2)C1=O [Example 26, Sodium D(- )-α-[(2-oxo-3-propionyl-1-imidazolidinyl)-carbonylamino]-benzylpenicillin]	32	4 U/ml	8 µg/mL	64 U/ml	–	32	> 256 U/ml	16 U/ml	MIC (Pseudomonas aeruginosa; strain Walter, 24 hours, 37°C): 64 U/ml
CC1(C)S[C@@H]2[C@H](NC(=O)[C@H](NC(=O)N3CCN(S(=O)(=O)c4ccccc4)C3=O)c3ccccc3)C(=O)N2[C@H]1C(=O)O [Example 27, Sodium D(-)-α-[(2-oxo-3-benzenesulphonyl-1-imidazolidinyl)-carbonylamino]-benzylpenicillin]	32	0.5 U/ml	–	64 U/ml	–	–	> 256 U/ml	–	–
CC1(C)S[C@@H]2[C@H](NC(=O)[C@H](NC(=O)N3CCN(C(=O)NS(C)(=O)=O)C3=O)c3ccccc3)C(=O)N2[C@H]1C(=O)O [Example 30, Sodium D(-)-α-[3-(methylsulphonyl-amino-carbonyl)-imidazolidinon-2-yl-1]-carbonylamino-benzylpenicillin]	32	64 U/ml	128 µg/mL	256 U/ml	8 µg/mL	128	> 256 U/ml	64 U/ml	–
CC1(C)S[C@@H]2[C@H](NC(=O)[C@H](NC(=O)N3CCN(S(C)(=O)=O)C3=O)c3ccccc3)C(=O)N2[C@H]1C(=O)O [Penicillin No. 1 (Table 3), Sodium D(-)-α-[(3-methylsulphonyl-imidazolidin-2-on-1-yl)-carbonylamino]-benzylpenicillin]	–	–	–	–	–	–	–	–	MIC (Pseudomonas aeruginosa; Table 3, strain F 41): 50 U/ml; MIC (Pseudomonas aeruginosa; Table 3, strain Walter): 50 U/ml; MIC (Klebsiella-Aerobacter; Table 3, strain 63): 12.5 U/ml; MIC (Klebsiella-Aerobacter; Table 3, strain K 10): 6.2 U/ml; MIC (Escherichia coli; Table 3, strain 14): < 0.8 U/ml; MIC (Escherichia coli; Table 3, strain 183/58): 1.6 U/ml; MIC (Escherichia coli; Table 3, strain A 261): 200 U/ml; MIC (Proteus vulgaris; Table 3, strain 1017): 3.1 U/ml; MIC (Streptococcus faecalis; Table 3, ATCC 9790): 25 U/ml; MIC (Staphylococcus aureus; Table 3, strain 133): < 0.8 U/ml; MIC (Staphylococcus aureus; Table 3, strain 1756E): 400 U/ml
Sodium D(-)-α-[(3-methylsulphonyl-4- or 5-methyl-imidazolidin-2-on-1-yl)-carbonylamino]-benzylpenicillin [Example 32]	256 and 128	–	16 µg/mL	–	8 µg/mL	32 and 16	–	–	MIC (Proteus vulgaris; unit assumed): 8 µg/mL
